The values that follow come from paper PMC7733455, “A novel multistage antiplasmodial inhibitor targeting Plasmodium falciparum histone deacetylase 1” (Cell Discovery, 2020).

Structures are written as SMILES. Like-named read-outs stand apart in the source and are kept apart here. A value given as a limit tells only on which side of the number the result lay.

Data set [1] relates to P. falciparum clinical isolates 6218 and 6320. Put plainly: Ring-stage survival assay (RSA), isolates 6218 and 6320. In kind it is cell-based, Plasmodium falciparum. The following applies: 700 nM, 6 h exposure, synchronized rings of isolates 6218 and 6320. The method, then: An RSA was performed as described previously[65] to evaluate the activity of JX21108 against the artemisinin- and piperaquine-resistant P. falciparum clinical isolates 6218 and 6320[43]. Briefly, parasites were highly synchronized at 0–3 hpi by a 60%/40%-Percoll gradient[66] followed by 5% D-sorbitol[67] treatment after 3 h. The parasite suspension (0.5%–1% parasitemia, 2% hematocrit) was incubated with compounds at 700 nM in a total volume of 2 mL in a 48-well plate for 6 h. After that, the culture mixture was washed three times with 15 mL of CM before another 66 h of cultivation with CM. A Giemsa-stained blood smear was made after cultivation. Parasitemia was counted from at least 10,000 RBCs by microscopy. The survival rate was calculated as the percentage of that in DMSO control. DHA at a concentration of 700 nM served as a positive control.

The test system of data set [2] is P. falciparum 3D7. The data set can be described thus: Ring-stage survival assay (RSA), sensitive strain 3D7. In kind it is cell-based, Plasmodium falciparum. The note with it: 700 nM.
Data set [3] has as its system P. falciparum isolate 6320. The data set can be described thus: 3-day SYBR Green I GIA, field isolate 6320. It counts as cell-based. The following applies: Plasmodium falciparum; artemisinin- and piperaquine-resistant isolate; read-out: Resistant isolates EC50, 6320. As for the experimental part:
(§1) A 3-day SYBR Green I inhibition EC50 assay was performed as described previously. Briefly, highly synchronized ring-stage parasites by 5% sorbitol (1% parasitemia and 2% hematocrit) were incubated in a 96-well plate with compounds in a total volume of 200 μL. […] The parasites were cultured for 72 h before SYBR Green I staining as described above. The EC50 was calculated by GraphPad Prism. DHA was used as a positive control, and the final concentration of DMSO was 1%.

The next data set concerns P. falciparum CP286. The data set can be described thus: 3-day SYBR Green I GIA, strain CP286. In kind it is cell-based. The following applies: Plasmodium falciparum; CP286 resistant to pyrimethamine and chloroquine; read-out: Resistant isolates EC50, CP286. As for the experimental part: as §1
Another data set deals with P. falciparum GB4. Put plainly: 3-day SYBR Green I GIA, strain GB4. The note with it: Plasmodium falciparum; GB4 resistant to chloroquine; read-out: Resistant isolates EC50, GB4. It counts as cell-based. The method, then:
as §1

In data set [4] the test system is P. falciparum isolate 6218. Put plainly: 3-day SYBR Green I GIA, field isolate 6218. In kind it is cell-based. The following applies: Plasmodium falciparum; artemisinin- and piperaquine-resistant isolate; read-out: Resistant isolates EC50, 6218. The method, then:
as §1

A further data set concerns P. falciparum C2A. The data set can be described thus: 3-day SYBR Green I GIA, strain C2A. It counts as cell-based. The note with it: Plasmodium falciparum, read-out: Resistant isolates EC50, C2A. The method, then: as §1
Data set [5] is described as follows: Pharmacokinetic assay in mice. It counts as in vivo, BALB/c mice. The note with it: 5 mg/kg i.p. As for the experimental part:
Five female BALB/c mice (6–8 weeks, 18–19 g) per group were purchased from JH Laboratory Animal Co., Ltd. All mice were raised at controlled temperature and humidity and had free access to food and water. Compounds were dissolved in 5% DMSO and diluted with 20% aqueous 2-hydroxypropyl-β-cyclodextrin solution to a stock concentration of 0.5 mg/mL. Each mouse was i.p. injected with the compound solution at a dose of 5 mg/kg. Blood samples collected by anticoagulant (K2EDTA)-containing tubes at 0.25, 0.5, 1, 2, 4, 8, and 24 h after injection were centrifuged at 2000× g at 4 °C for 5 min to obtain plasma. LC-MS/MS analysis of samples was carried out by an ACQUITY UPLC HSS T3 1.8-μm column. The mobile phase was a mixture of phase A (0.1% formic acid in water) and phase B (0.1% formic acid in acetonitrile), which ran in gradient mode at a flow rate of 0.6 mL/min at 60 °C. Mass spectra were obtained on an API6500 triple quadrupole equipped with an ESI source. Propranolol was used as an internal standard. The plasma concentrations of the compounds were analyzed, and the pharmacokinetic parameters were calculated via WinNonlin.

In a further data set the test system is P. yoelii. The data set can be described thus: In vivo efficacy of the five HDAC inhibitor hits in rodent malaria model (Fig. S1c). Details: species or system Plasmodium yoelii in BALB/c mice. The note with it: i.p., three mice per group. The method, then:
Fimepinostat Pinometostat
Sodium Phenylbutyrate 500 50
Givinostat hydrochloride monohydrate
Supplementary Fig. S1 Screening of epigenetic inhibitors against blood-stage P. […]
nM and 500 nM tested compounds compared to that with the DMSO control. b The EC50 values of five compounds against Pf3D7, HepG2 and 293T cells; SIa,EC 50 HepG2/ […]
of P. yoelii in BALB/c mice. Three mice were used in each group. Parasitemia was calculated from at least 5,000 red blood cells (RBCs) by microscopy . Blank, untreated group; PPQ, piperaquine phosphate. The administration route was intraperitoneal (i.p.). The data of a and b are from three independent biological replicates in […]
(also on this page, place not known: BET BromodominHDMHMT […] HDAC SI ±3.2 ±24 ±125 % Parasitemia microscopy. a) […]

Data set [6] concerns asynchronous 3D7 parasites. Put plainly: Time- and dose-dependent parasite inhibition assay. In kind it is cell-based, Plasmodium falciparum. The method, then: Asynchronous parasites (2% parasitemia, 4% hematocrit) were treated with the tested compounds at a concentration of 10, 30, 60, or 100 nM, respectively. At 3, 6, 12, and 24 h post treatment, parasitemia of each sample was detected by flow cytometry to investigate the time-dependent activity. Parasites from the same treatment were further washed to remove compounds, and parasitemia was diluted 1:40 by new RBCs into CM for an additional 4 days of culture. Parasitemia of each sample was detected by flow cytometry as described above to investigate the dose-dependent activity. DMSO was used as a blank control.

The nature of data set [7]: Liver microsome metabolism assay, mouse. In kind it is in vitro ADME. As for the experimental part: Liver microsomes (0.5 mg/mL) were purchased from Corning. Ketanserin was selected as a positive control. The tested compounds were first dissolved in DMSO to a concentration of 10 mM and then diluted to 0.5 mM with acetonitrile. Liver microsome buffer was used to dilute the compounds to a working concentration of 1.5 µM, 30 µL of which was mixed with 15 µL of 6 mM NADPH at 37 °C. At 0, 5, 15, 30, and 45 min after incubation, 135 µL of acetonitrile was added to quench the reaction. The mixture was shaken on a vortex mixer (IKA, MTS 2/4) for 10 min at 600 rpm/min and then centrifuged at 5594× g for 15 min (Thermo Multifuge×3R). The supernatant was diluted 1:1 into distilled water, and analyzed by LC-MS/MS.
Background: Microsomes from liver hold many membrane-bound enzymes, among them those of drug oxidation.

Another data set concerns the target T1, hSirt2 (Homo sapiens, UniProt Q8IXJ6).
T1 construct: purchased BPS Bioscience 50013
Put plainly: Human HDAC inhibition assay, hSirt2. It counts as biochemical. The note with it: performed only once; read-out: Inhibitory Activity IC50, hSirt2. As for the experimental part:
SAHA and suramin were used as positive controls. The tested compounds were dissolved into 20 mM stock in 100% DMSO. […] Ten microliters of trypsin and Ac-peptide substrate/Tris buffer solution were added to start the reaction, followed by a 1-h incubation at room temperature for HDACs 1–3 and 6. Ten microliters of Ac-peptide substrate/Tris buffer solution was added to start the reaction, followed by a 4-h incubation at room temperature and a further 2-h incubation with trypsin solution for HDAC8 and Sirt 2. […] This experiment was performed only once.

The subject of a further data set is 293T cells. Put plainly: In vitro cytotoxicity analysis (CellTiter-Glo), 293T. The note with it: read-out: Cytotoxicity EC50, 293T; 72 h, CellTiter-Glo. The method, then: (§2) In all, 1% DMSO was used as a negative control. The inhibition of each drug was normalized to that of the DMSO control. EC50 was calculated by GraphPad Prism. Three independent assays with two technical replicates each time were conducted in this experiment.
Background: Cellular ATP, detected with luciferase, serves as a proxy for viable cell number.

Assay in data set [8]: as above
The following applies: human, 293T cells, Cytotoxicity EC50, 293T, 72 h, CellTiter-Glo. The method, then:
as §2

The subject of data set [9] is P. falciparum 3D7. The data set can be described thus: 3-day SYBR Green I growth inhibition assay (GIA), strain 3D7. It counts as cell-based, Plasmodium falciparum. The following applies: Plasmodium falciparum, 3D7, 72 h, read-out: Antiplasmodial activity EC50, 3D7. The method, then: as §1
Data set [10] is described as follows: In vitro cytotoxicity analysis (CellTiter-Glo), HepG2. The following applies: human, HepG2 cells. The method, then: as §2
A further data set concerns HepG2 cells. The data set is described as above. The following applies: read-out: Cytotoxicity EC50, HepG2; 72 h, CellTiter-Glo. As for the experimental part:
as §2

Data set [11] concerns parasite histone H3 acetylation. Put plainly: Western blot of histone H3 acetylation in parasites. It counts as cell-based, Plasmodium falciparum. The following applies: 4 h treatment of asynchronous 3D7; quisinostat/JX21108 5 and 20 nM, SAHA 500 nM. The method, then:
Then the parasite samples were harvested and treated with 0.15% saponin to remove the RBC proteins and sonicated in 1% NP40 lysis buffer. After centrifugation at 12,000× g for 15 min, the supernatant was resuspended in a routine SDS loading buffer. Parasite proteins were separated by 10% SDS-PAGE and transferred onto PVDF membranes (Millipore). […] A2348) followed by a secondary antibody conjugated with HRP (Jackson Immuno Research Laboratories). The chemiluminescent HRP substrate Immobilon Western Kit (Millipore) was used for signal detection.
(Immunoblotting shows a protein as a band on a membrane.)

A further data set relates to P. falciparum Dd2. Put plainly: 3-day SYBR Green I GIA, multidrug-resistant strain Dd2. It counts as cell-based, Plasmodium falciparum. As for the experimental part: as §1
[12] abbreviates: female, BALB/c, mouse, plasma, ip.

T1 sequence (Q8IXJ6 whole entry): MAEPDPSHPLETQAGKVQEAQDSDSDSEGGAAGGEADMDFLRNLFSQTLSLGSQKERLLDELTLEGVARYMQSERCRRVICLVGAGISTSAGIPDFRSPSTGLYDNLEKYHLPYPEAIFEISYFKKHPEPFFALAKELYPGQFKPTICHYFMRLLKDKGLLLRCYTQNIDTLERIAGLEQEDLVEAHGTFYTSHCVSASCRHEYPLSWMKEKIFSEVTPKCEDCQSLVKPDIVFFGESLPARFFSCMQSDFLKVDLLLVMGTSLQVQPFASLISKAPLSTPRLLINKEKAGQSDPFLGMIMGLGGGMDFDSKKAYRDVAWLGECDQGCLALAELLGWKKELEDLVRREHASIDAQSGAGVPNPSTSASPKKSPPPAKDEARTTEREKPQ

As usually defined, the EC50 is the concentration at which the effect is half-maximal. Take `C[C@H]1[C@@H](O)O[C@@H]2O[C@@]3(C)CC[C@H]4[C@H](C)CC[C@@H]1[C@@]24OO3` [DHA, dihydroartemisinin, reference compound]: in data set [1], the RSA survival rate is recorded as around 8%. Also, the “RSA effect on ring-stage parasites of 3D7” value with P. falciparum 3D7 [2] is on record as “efficiently killed the ring-stage parasites”. Moreover, the EC50 amounted to 6.5 ± 1.4 nM in data set [3]; 5.6 ± 2.4 nM with P. falciparum CP286; 3.2 ± 1.2 nM with P. falciparum GB4; 5.5 ± 1.1 nM in data set [4]; 3.7 ± 2.4 nM in the data set on P. falciparum C2A.
For orientation: CL/F means the apparent clearance, not corrected for the fraction that reaches the circulation. The term Cmax denotes the maximum level reached in the sampled fluid or tissue. The Tmax is the time from dosing to the highest level. The term AUC(0-inf) denotes the area under the concentration-time curve extrapolated to infinity. What is called AUC(0-t) is the area under the concentration-time curve up to a stated or last time point. A lower AUC(0-t) goes with less exposure. One may read the IC50 as the concentration that gives 50% inhibition. Turning to `Cn1cc(CNCC2CCN(c3ncc(C(=O)NO)cn3)CC2)c2ccccc21` [Quisinostat, reference compound], the CL/F in data set [5] was found to be 462 mL/min/kg. Also, the peak concentration (Cmax) in data set [5] turned out to be 88.7 ng/mL. Besides, the Tmax in [5] stood at 4.98 min. The V/F in [5] is reported as 245 L/kg. In addition, in [5] (during 8–12 h after administration), the plasma concentration is reported as ~ 2.5 ng/mL. In data set [5] (setting [12]), this compound yielded an area under the curve AUC(0-inf) of 180 ng·h/mL. In [5] (setting [12]), this compound yielded an AUC(0-t) of 157 ng·h/mL. The compound further had a half-life in data set [5] (setting [12]) of 368 min. For the same compound, in the data set with P. yoelii, the “clearing of P. yoelii blood-stage infections” value is “remained effective in clearing P. yoelii blood-stage infections”. The “parasitemia measured 4 days after 6-h treatment” value in data set [6] (6-h treatment, washed, 1:40 dilution, 4 days culture) is reported as “substantial reduction in parasitemia”. Also, in data set [6] (10-100 nM, parasitemia immediately after treatment), the “asexual growth of 3D7 after 12- and 24-h treatments” value was “significantly inhibited the asexual growth of 3D7 parasites”. Moreover, the “T1/2 in liver microsomes” value in data set [7] is listed as 13.31 min. Also, the half-life at 1 µM in data set [7] (mouse, liver microsomes, read-out: T1/2 in liver microsomes) was determined as 13.3 min. In addition, the IC50 at hSirt2 was above 10000 nM. Further, the concentration for a half-maximal effect (EC50) is 48 ± 1 nM in the data set with 293T cells; 5.2 ± 0.7 nM with P. falciparum 3D7 [9]; 42 ± 10 nM in the data set with HepG2 cells; 7.1 nM in the data set with P. falciparum Dd2 (Plasmodium falciparum, DD2, 72 h, read-out: Antiplasmodial activity EC50, Dd2, 3-day SYBR Green I GIA, multidrug-resistant strain Dd2); 7.09 ± 0.01 nM in the data set on P. falciparum Dd2 (read-out: Antiplasmodial activity EC50, Dd2, 3-day SYBR Green I GIA, multidrug-resistant strain Dd2). The concentration giving a half-maximal response (EC50) at 72 h in data set [8] came to 42 nM; in [10] it was 48 nM. The “pan-acetylation levels of parasite histone H3” value in data set [11] is “greatly increased the pan-acetylation levels of parasite histone H3”.
